# Patent US10494380B2, “Nitrogen-containing tricyclic derivatives having HIV replication inhibitory activity” (priority 2015, dated 2019)
# System: T125A mutant virus (HIV-1 NL-432 recombinant molecular clone, IN gene)
# Experiment: HIV replication inhibition assay against integrase 124/125 mutant virus (Test Example 2)
# Assay type: cell-based
# Conditions: Human immunodeficiency virus 1, MT4, read-out: EC50 against T125A mutant virus, T125A mutant virus (HIV-1 NL-432 IN gene), MT-4 cells, MTT
# Protocol: Persistently HIV (HTLV-IIIB strain) infected human T cell strain Molt-4 clone8 was cultured in RPMI-1640 medium supplemented with 10% fetal bovine serum and the supernatant was filtered, then the virus titer was measured and stored at −80° C. Polymorphic mutations in HIV-1-infected patients have been observed in amino acids 124 and 125 on the HIV-1 integrase (IN) gene. A point mutation was introduced on the amino acids 124 and/or 125 of IN gene of the HIV-1 NL-432 recombinant molecular clone to generate a mutant virus plasmid construct. These mutant virus plasmids were transfected into 293T cells, and after two days, the supernatant was filtered and then the virus titer was measured and stored at −80° C. Each anti-HIV active substance was diluted with culture medium described above to the designated concentration, which was dispensed into 96-well microtiter plate by 50 μL. Next, 100 μL of MT-4 cell suspension (2.5×10^4 cells) was dispensed into each well, then 50 μl of HIV-containing supernatant diluted with culture medium described above was added thereto (60 pfu (plaque forming unit)).
# Cells were cultured at 37° C. in CO2 incubator for four days, then 30 μL of MTT (3-(4,5-dimethylthiazole-2-yl)-2,5-diphenyltetrazolyum bromide) reagent (5 mg/mL in PBS) was added to all wells followed by incubation for 1 hour. In this step, MTT was reduced to insoluble formazan in living cells. To elute generated formazan, 150 μL of the culture supernatant was removed from all wells, then 150 μL of cell lysis solution (10% Triton X-100 and 0.4% (v/v)-HCl containing isopropanol) was added thereto, followed by shaking with a plate mixer. The formazan was measured with micro plate reader at OD: 560 nm and 690 nm (reference wavelength) and the result was compared with the reference wells. EC50 means the compound concentration at which 50% of cytotoxicity caused by virus infection is inhibited.
row,SMILES,EC50 [nM]
1,Cc1c([C@H](OC(C)(C)C)C(=O)O)c(-c2ccc(Cl)cc2)c2cc(C)n3c2c1N(S(=O)(=O)c1cccnc1)CC3 [Compound I-139],6.8
2,Cc1c([C@H](OC(C)(C)C)C(=O)O)c(-c2ccc(Cl)cc2)c2cc(C)n3c2c1N(C)[C@H](C)C3 [Compound I-057],2.7
3,Cc1c([C@H](OC(C)(C)C)C(=O)O)c(-c2ccc(Cl)cc2)c2cc(C)n3c2c1N(S(C)(=O)=O)[C@@H](C(F)F)C3 [Compound I-088],27
4,Cc1c([C@H](OC(C)(C)C)C(=O)O)c(-c2ccc(Cl)cc2)c2cc(C)n3c2c1N(c1ncc(OCc2ccc(F)cc2)cn1)CC3 [Compound I-236],9.9
5,Cc1ccc(-c2c([C@H](OC(C)(C)C)C(=O)O)c(C)c3c4c2cc(C)n4CCN3c2ncc(C3CC3)cn2)cc1 [Compound I-271],4.2
6,Cc1c([C@H](OC(C)(C)C)C(=O)O)c(-c2ccc(Cl)cc2)c2cc(C)n3c2c1N(Cc1ccccn1)CC3 [Compound I-117],8.6
7,COCC[C@H]1Cn2c(C)cc3c(-c4ccc(Cl)cc4)c([C@H](OC(C)(C)C)C(=O)O)c(C)c(c32)N1C [Compound I-109],15
8,Cc1ccc(-c2c([C@H](OC(C)(C)C)C(=O)O)c(C)c3c4c2cc(C)n4CCN3c2ncc(Oc3cnccn3)cn2)cc1 [Compound I-341],4.1
9,COC(=O)N1c2c(C)c([C@H](OC(C)(C)C)C(=O)O)c(-c3ccc(Cl)cc3)c3cc(C)n(c23)C[C@H]1C [Compound I-111],4.2
10,Cc1c([C@H](OC(C)(C)C)C(=O)O)c(-c2ccc(Cl)cc2)c2cc(C)n3c2c1N(S(=O)(=O)CCN(C)C)CC3 [Compound I-030],23
11,COC[C@H]1Cn2c(C)cc3c(-c4ccc(Cl)cc4)c([C@H](OC(C)(C)C)C(=O)O)c(C)c(c32)N1S(C)(=O)=O [Compound I-086],11
12,Cc1ccc(-c2c([C@H](OC(C)(C)C)C(=O)O)c(C)c3c4c2cc(C)n4CCN3c2ncc(Cl)cn2)cc1 [Compound I-263],7.2
13,COCC[C@@H]1Cn2c(C)cc3c(-c4ccc(Cl)cc4)c([C@H](OC(C)(C)C)C(=O)O)c(C)c(c32)N1S(C)(=O)=O [Compound I-108],19
14,Cc1c([C@H](OC(C)(C)C)C(=O)O)c(-c2ccc(Cl)cc2)c2c(Cl)c(C)n3c2c1N(C)CC3 [Compound I-037],30
15,Cc1c([C@H](OC(C)(C)C)C(=O)O)c(-c2ccc(Cl)cc2)c2cc(C)n3c2c1N(Cc1cccnc1)CC3 [Compound I-136],8.4
16,Cc1c([C@H](OC(C)(C)C)C(=O)O)c(-c2ccc(Cl)cc2)c2cc(C)n3c2c1N(CC1CC1)[C@@H](C)C3 [Compound I-083],15
17,COC(=O)N1CCn2c(C)cc3c(-c4ccc(Cl)cc4)c([C@H](OC(C)(C)C)C(=O)O)c(C)c1c32 [Compound I-031],11
18,Cc1c([C@H](OC(C)(C)C)C(=O)O)c(-c2ccc(Cl)cc2)c2c(F)c(C)n3c2c1N(S(C)(=O)=O)CC3 [Compound I-052],9
19,[2H]C1([2H])N(C)c2c(C)c([C@H](OC(C)(C)C)C(=O)O)c(-c3ccc(F)cc3)c3cc(C)n(c23)C1([2H])[2H] [Compound I-105],11
20,Cc1c([C@H](OC(C)(C)C)C(=O)O)c(-c2ccc(Cl)cc2)c2cc(C)n3c2c1N(S(C)(=O)=O)[C@@H](CF)C3 [Compound I-095],14
21,Cc1ccc(-c2c([C@H](OC(C)(C)C)C(=O)O)c(C)c3c4c2cc(Br)n4CCN3C)cc1 [Compound I-081],9.6
22,Cc1c([C@H](OC(C)(C)C)C(=O)O)c(-c2ccc(Cl)cc2)c2cc(C)n3c2c1N(Cc1ccncc1)CC3 [Compound I-135],8.2
23,Cc1ccc(-c2c([C@H](OC(C)(C)C)C(=O)O)c(Cl)c3c4c2cc(C)n4CCN3c2ncc(C)cn2)cc1 [Compound I-301],3.3

row,SMILES,EC50 [nM]
1,CC(=O)N1c2c(C)c([C@H](OC(C)(C)C)C(=O)O)c(-c3ccc(Cl)cc3)c3cc(C)n(c23)C[C@H]1C [Compound I-061],9.6
2,Cc1c(F)cc(-c2c([C@H](OC(C)(C)C)C(=O)O)c(C)c3c4c2cc(C)n4CCN3C)cc1F [Compound I-051],22
3,Cc1c([C@H](OC(C)(C)C)C(=O)O)c(-c2ccc(Cl)cc2)c2cc(C)n3c2c1N(S(C)(=O)=O)CCC3 [Compound I-078],21
4,Cc1ccc(-c2c([C@H](OC(C)(C)C)C(=O)O)c(C)c3c4c2cc(C)n4C[C@@H](C)N3CCN(C)C)cc1 [Compound I-148],22
5,Cc1c([C@H](OC(C)(C)C)C(=O)O)c(-c2ccc(Cl)cc2)c2cc(C)n3c2c1N(S(=O)(=O)C1CC1)CC3 [Compound I-032],5
6,Cc1ccc(-c2c([C@H](OC(C)(C)C)C(=O)O)c(C)c3c4c2cc(C)n4CCN3c2ncc(CO)cn2)cc1 [Compound I-290],22
7,Cc1ccc(-c2c([C@H](OC(C)(C)C)C(=O)O)c(C)c3c4c2cc(Cl)n4CCN3C)cc1 [Compound I-068],6.8
8,[2H]C([2H])([2H])N1CCn2c(C)cc3c(-c4ccc(F)cc4)c([C@H](OC(C)(C)C)C(=O)O)c(C)c1c32 [Compound I-118],10
9,Cc1ccc(-c2c([C@H](OC(C)(C)C)C(=O)O)c(C)c3c4c2cc(C)n4C(C)CN3CCN(C)C)cc1 (mixture of isomers) [Compound I-144],37
10,Cc1c([C@H](OC(C)(C)C)C(=O)O)c(-c2ccc(Cl)cc2)c2cc(C)n3c2c1N(S(C)(=O)=O)[C@@H](C)C3 [Compound I-036],6.5
11,Cc1c([C@H](OC(C)(C)C)C(=O)O)c(-c2ccc(Cl)cc2)c2cc(C)n3c2c1N(c1ccncc1)CC3 [Compound I-155],58
12,Cc1c([C@H](OC(C)(C)C)C(=O)O)c(-c2ccc(Cl)cc2)c2cc(C)n3c2c1N(C)CCC3 [Compound I-079],17
13,Cc1c([C@H](OC(C)(C)C)C(=O)O)c(-c2ccc(Cl)cc2)c2cc(C)n3c2c1N(c1ncc(C2=CCOCC2)cn1)CC3 [Compound I-300],4.6
14,CCc1ccc(-c2c([C@H](OC(C)(C)C)C(=O)O)c(C)c3c4c2cc(C)n4CCN3C)cc1 [Compound I-082],6.1
15,Cc1c([C@H](OC(C)(C)C)C(=O)O)c(-c2ccc(Cl)cc2)c2cc(C)n3c2c1N(S(C)(=O)=O)[C@H](C)C3 [Compound I-060],14
16,[2H]C1([2H])N(S(C)(=O)=O)c2c(C)c([C@H](OC(C)(C)C)C(=O)O)c(-c3ccc(Cl)cc3)c3cc(C)n(c23)C1([2H])[2H] [Compound I-034],9.6
17,Cc1ccc(-c2c([C@H](OC(C)(C)C)C(=O)O)c(C)c3c4c2cc(C)n4C[C@@H](C)N3CCN2CCOCC2)cc1 [Compound I-158],4.6
18,Cc1c([C@H](OC(C)(C)C)C(=O)O)c(-c2ccc(Cl)cc2)c2cc(C)n3c2c1N(Cc1ncccn1)CC3 [Compound I-116],6.7
19,COCCc1cnc(N2CCn3c(C)cc4c(-c5ccc(C)cc5)c([C@H](OC(C)(C)C)C(=O)O)c(C)c2c43)nc1 [Compound I-336],2.7
20,Cc1c([C@H](OC(C)(C)C)C(=O)O)c(-c2ccc(Cl)cc2)c2cc(C)n3c2c1N(Cc1ccccc1)CC3 [Compound I-107],25
21,Cc1c([C@H](OC(C)(C)C)C(=O)O)c(-c2ccc(Cl)cc2)c2c(C)c(C)n3c2c1N(C)CC3 [Compound I-080],33
22,C=CCN1CCn2c(C)cc3c(-c4ccc(C)cc4)c([C@H](OC(C)(C)C)C(=O)O)c(C)c1c32 [Compound I-294],16

# Same assay, conditions: T125A mutant virus (HIV-1 NL-432 IN gene), MT-4 cells, MTT; read-out: EC50 against T125A mutant virus
row,SMILES,EC50 [nM]
1,Cc1c([C@H](OC(C)(C)C)C(=O)O)c(-c2ccc(Cl)cc2)c2cc(C)n3c2c1N(c1ncc(OC(F)F)cn1)CC3 [Compound I-214],4

# Same assay, conditions: read-out: EC50 against T125A mutant virus; T125A mutant virus (HIV-1 NL-432 IN gene), MT-4 cells, MTT
row,SMILES,EC50 [nM]
1,Cc1c([C@H](OC(C)(C)C)C(=O)O)c(-c2ccc(Cl)cc2)c2cc(C)n3c2c1N(C)CC3C (stereo partly drawn) [Compound I-090],39
2,Cc1ccc(-c2c([C@H](OC(C)(C)C)C(=O)O)c(C)c3c4c2cc(C)n4C(C)CN3CCN(C)C)cc1 (stereo partly drawn) [Compound I-163],38
3,Cc1c([C@H](OC(C)(C)C)C(=O)O)c(-c2ccc(Cl)cc2)c2cc(C)n3c2c1N(S(C)(=O)=O)CC3C (stereo partly drawn) [Compound I-062],34
4,Cc1c([C@H](OC(C)(C)C)C(=O)O)c(-c2ccc(F)cc2)c2cc(C)n3c2c1N(C)CC3C (stereo partly drawn) [Compound I-133],96
5,Cc1c([C@H](OC(C)(C)C)C(=O)O)c(-c2ccc(F)cc2)c2cc(C)n3c2c1N(C)CC3C (stereo partly drawn) [Compound I-134],8.4
6,Cc1c([C@H](OC(C)(C)C)C(=O)O)c(-c2ccc(Cl)cc2)c2cc(C)n3c2c1N(C)CC3C (stereo partly drawn) [Compound I-091],2
7,Cc1c([C@H](OC(C)(C)C)C(=O)O)c(-c2ccc(Cl)cc2)c2cc(C)n3c2c1NC(=O)C3C (stereo partly drawn) [Compound I-055],24
8,Cc1c([C@H](OC(C)(C)C)C(=O)O)c(-c2ccc(Cl)cc2)c2cc(C)n3c2c1N(S(C)(=O)=O)CC3C (stereo partly drawn) [Compound I-063],4.5
